Measured values taken from PubChem BioAssay AID1963971 (Molecular Pharmacology Branch, DTP, NCI, 2024).

Test system: 953936-095-R-J2-PDC spheroids with HUVEC/MSC, viability
Assay: Anticancer human tumor 953936-095-R-J2-PDC patient-derived cervical squamous cell carcinoma cell line growth inhibition [PI3K]
Settings: for IC50: curve of first compound; for viability, T/C: stronger effect = lower value
How it was run: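 Multi-cell spheroids combine tumor cells with HUVEC and human MSCs, treated with targeted agents alone or with inavolisib, alpelisib, duvelisib or copanlisib. Concentrations fall in half-log steps from at or near clinical Cmax, or from 10 microM where Cmax is unknown; viability read-out.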

[1] = second compound 0.00316 µM, first compound 0.0316 µM
[2] = second compound 0.00316 µM, first compound 0.1 µM
[3] = second compound 0.00316 µM, first compound 0.316 µM
[4] = second compound 0.00316 µM, first compound 1 µM
[5] = second compound 0.00316 µM, first compound 3.16 µM
[6] = second compound 0.00316 µM, first compound 10 µM
[7] = second compound 0.01 µM, first compound 0.0316 µM
[8] = second compound 0.01 µM, first compound 0.1 µM
[9] = second compound 0.01 µM, first compound 0.316 µM
[10] = second compound 0.01 µM, first compound 1 µM
[11] = second compound 0.01 µM, first compound 3.16 µM
[12] = second compound 0.01 µM, first compound 10 µM
[13] = second compound 0.0316 µM, first compound 0.0316 µM
[14] = second compound 0.0316 µM, first compound 0.1 µM
[15] = second compound 0.0316 µM, first compound 0.316 µM
[16] = second compound 0.0316 µM, first compound 1 µM
[17] = second compound 0.0316 µM, first compound 3.16 µM
[18] = second compound 0.0316 µM, first compound 10 µM
[19] = second compound 0.1 µM, first compound 0.0316 µM
[20] = second compound 0.1 µM, first compound 0.1 µM
[21] = second compound 0.1 µM, first compound 0.316 µM
[22] = second compound 0.1 µM, first compound 1 µM
[23] = second compound 0.1 µM, first compound 3.16 µM
[24] = second compound 0.1 µM, first compound 10 µM
[25] = second compound 0.316 µM, first compound 0.0316 µM
[26] = second compound 0.316 µM, first compound 0.1 µM
[27] = second compound 0.316 µM, first compound 0.316 µM
[28] = second compound 0.316 µM, first compound 1 µM
[29] = second compound 0.316 µM, first compound 3.16 µM
[30] = second compound 0.316 µM, first compound 10 µM
[31] = second compound 1 µM, first compound 0.0316 µM
[32] = second compound 1 µM, first compound 0.1 µM
[33] = second compound 1 µM, first compound 0.316 µM
[34] = second compound 1 µM, first compound 1 µM
[35] = second compound 1 µM, first compound 3.16 µM
[36] = second compound 1 µM, first compound 10 µM
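Further: spheroids exposed to compounds for seven days before read-out.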

Cn1nccc1Nc1nccc(-c2ccn(C(CO)c3ccc(Cl)c(F)c3)c(=O)c2)n1 (centres undefined) + COc1c(OCCCN2CCOCC2)ccc2c3n(c(=NC(=O)c4cnc(N)nc4)nc12)CCN3
IC50 (second compound 0.00316 µM): > 10000 nM
IC50 (second compound 0.01 µM): > 10000 nM
IC50 (second compound 0.0316 µM): < 31.6 nM
IC50 (second compound 0.1 µM): < 31.6 nM
IC50 (second compound 0.316 µM): < 31.6 nM
IC50 (second compound 1 µM): < 31.6 nM
viability, T/C [1]: 79.8%
viability, T/C [2]: 78.6%
viability, T/C [3]: 85.1%
viability, T/C [4]: 68.8%
viability, T/C [5]: 69.8%
viability, T/C [6]: 67.5%
viability, T/C [7]: 63.5%
viability, T/C [8]: 64.7%
viability, T/C [9]: 67.3%
viability, T/C [10]: 61.7%
viability, T/C [11]: 59.4%
viability, T/C [12]: 49.1%
viability, T/C [13]: 39.4%
viability, T/C [14]: 38.2%
viability, T/C [15]: 36.2%
viability, T/C [16]: 30.5%
viability, T/C [17]: 32.3%
viability, T/C [18]: 31.4%
viability, T/C [19]: 16.1%
viability, T/C [20]: 15.6%
viability, T/C [21]: 12.8%
viability, T/C [22]: 10.8%
viability, T/C [23]: 8.15%
viability, T/C [24]: 5.83%
viability, T/C [25]: 4.89%
viability, T/C [26]: 4.56%
viability, T/C [27]: 3.55%
viability, T/C [28]: 2.04%
viability, T/C [29]: 1.28%
viability, T/C [30]: 1.21%
viability, T/C [31]: 1.1%
viability, T/C [32]: 1.11%
viability, T/C [33]: 0.44%
viability, T/C [34]: 0.35%
viability, T/C [35]: 0.28%
viability, T/C [36]: 0.34%

CC(Cn1ccc(-c2ccc(C#N)c(Cl)c2)n1)NC(=O)c1cc(C(C)O)[nH]n1 (centres undefined) + COc1c(OCCCN2CCOCC2)ccc2c3n(c(=NC(=O)c4cnc(N)nc4)nc12)CCN3
IC50 (second compound 0.00316 µM): > 10000 nM
IC50 (second compound 0.01 µM): > 10000 nM
IC50 (second compound 0.0316 µM): < 31.6 nM
IC50 (second compound 0.1 µM): < 31.6 nM
IC50 (second compound 0.316 µM): < 31.6 nM
IC50 (second compound 1 µM): < 31.6 nM
viability, T/C [1]: 80.3%
viability, T/C [2]: 88.3%
viability, T/C [3]: 84.1%
viability, T/C [4]: 101%
viability, T/C [5]: 90.7%
viability, T/C [6]: 89.2%
viability, T/C [7]: 68.8%
viability, T/C [8]: 71.6%
viability, T/C [9]: 76.3%
viability, T/C [10]: 71.1%
viability, T/C [11]: 78.9%
viability, T/C [12]: 70.2%
viability, T/C [13]: 43.5%
viability, T/C [14]: 40.9%
viability, T/C [15]: 42.6%
viability, T/C [16]: 39.8%
viability, T/C [17]: 46.2%
viability, T/C [18]: 41.1%
viability, T/C [19]: 19.4%
viability, T/C [20]: 19.4%
viability, T/C [21]: 20.7%
viability, T/C [22]: 20.3%
viability, T/C [23]: 21.8%
viability, T/C [24]: 19.8%
viability, T/C [25]: 7.44%
viability, T/C [26]: 6.25%
viability, T/C [27]: 7.53%
viability, T/C [28]: 6.55%
viability, T/C [29]: 7.13%
viability, T/C [30]: 8.7%
viability, T/C [31]: 1.6%
viability, T/C [32]: 1.39%
viability, T/C [33]: 2%
viability, T/C [34]: 1.92%
viability, T/C [35]: 2.08%
viability, T/C [36]: 1.97%
